# Data reported in patent US10189843B2, “Fused pyrazole derivative having autotaxin inhibitory activity” (The University of Tokyo, priority 2014, dated 2019).
# Target: T1, Human autotaxin enzyme (Homo sapiens, UniProt Q13822)
# T1 construct: purchased R&D System
# Assay: Evaluation of autotaxin inhibitor, Method C (18:0 Lyso PC substrate, choline assay, Resorufin fluorescence)
# Assay type: biochemical
# Conditions: Method C (Test Example 3), read-out: Inhibitory activity (enzyme inhibitory activity, IC50)
# Procedure, shortened: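 Recombinant human autotaxin with compound and 200 μM 18:0 Lyso PC (stock) in Tris-HCl pH 7.5, NaCl, MgCl2, Triton X-100, 2 h RT. Released choline detected via choline oxidase/peroxidase/Amplex-type reagent, 20 min, resorufin fluorescence 531/598 nm; % inhibition vs no-compound and no-enzyme controls, concentration-response curve.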
row,IC50 [nM],Structure (SMILES)
1,≥ 1000,C[C@H]1CN(Cc2cccc(OCCCN(C)C)c2)C(=O)c2cc(-c3ccc(Cl)cc3)nn21 [Compound I-0166]
2,≥ 1000,C[C@H]1CN(Cc2cccc(C(=O)N3CCC(O)CC3)c2)C(=O)c2cc(-c3ccc(Cl)cc3)nn21 [Compound I-0167]
3,≥ 1000,C[C@H]1CN(Cc2ccccc2OCCCN(C)C)C(=O)c2cc(-c3ccc(Cl)cc3)nn21 [Compound I-0168]
4,≥ 1000,C[C@H]1CN(Cc2ccc(C(N)=O)cc2)C(=O)c2cc(-c3ccc(Cl)cc3)nn21 [Compound I-0169]
5,10 to 100,C[C@H]1CN(Cc2ccc(CC(=O)O)cc2)C(=O)c2cc(-c3ccc(Cl)cc3)nn21 [Compound I-0170]
6,≥ 1000,C[C@H]1CN(Cc2ccc(O)cc2)C(=O)c2cc(-c3ccc(Cl)cc3)nn21 [Compound I-0171]
7,≥ 1000,C[C@H]1CN(Cc2ccccc2)C(=O)c2cc(-c3ccc(Cl)cc3)nn21 [Compound I-0172]
8,100 to 1000,O=C(O)c1cccc(CN2CC(COCc3ccccc3)n3nc(-c4ccc(Cl)cc4)cc3C2=O)c1 (stereo not drawn) [Compound I-0173]
9,≥ 1000,O=C(O)c1cccc(CN2CC(CO)n3nc(-c4ccc(Cl)cc4)cc3C2=O)c1 (stereo not drawn) [Compound I-0174]
10,10 to 100,CCOCC1CN(Cc2cccc(C(=O)O)c2)C(=O)c2cc(-c3ccc(Cl)cc3)nn21 (stereo not drawn) [Compound I-0175]
11,< 10,CCCOCC1CN(Cc2cccc(C(=O)O)c2)C(=O)c2cc(-c3ccc(Cl)cc3)nn21 (stereo not drawn) [Compound I-0176]
12,≥ 1000,N#Cc1ccc(CN2CC(COCc3ccccc3)n3nc(-c4ccc(Cl)cc4)cc3C2=O)cc1 (stereo not drawn) [Compound I-0177]
13,100 to 1000,CCOCC1CN(Cc2ccc(C#N)cc2)C(=O)c2cc(-c3ccc(Cl)cc3)nn21 (stereo not drawn) [Compound I-0178]
14,100 to 1000,CCCCCC1CN(c2ccc(C(=O)O)cc2)C(=O)c2cc(-c3ccc(Cl)cc3)nn21 (stereo not drawn) [Compound I-0179]
15,≥ 1000,CCCCCC1CN(Cc2ccc(C#N)cc2)C(=O)c2cc(C(=O)N3CCC(C#N)CC3)nn21 (stereo not drawn) [Compound I-0180]
16,100 to 1000,CCCC1CN(Cc2ccc(C#N)cc2)C(=O)c2cc(-c3ccc(Cl)cc3)nn21 (stereo not drawn) [Compound I-0181]
17,≥ 1000,CCCC1CN(Cc2ccc(C#N)cc2)C(=O)c2cc(-c3ccc(C(F)(F)F)cc3)nn21 (stereo not drawn) [Compound I-0182]
18,10 to 100,CCCCC1CN(Cc2ccc(C#N)cc2)C(=O)c2cc(-c3ccc(Cl)cc3)nn21 (stereo not drawn) [Compound I-0183]
19,< 10,CCCCCC1CN(Cc2cccc(C(=O)O)n2)C(=O)c2cc(-c3ccc(Cl)cc3)nn21 (stereo not drawn) [Compound I-0184]
20,10 to 100,CCCCCC1CN(Cc2cncc(C(=O)O)c2)C(=O)c2cc(-c3ccc(Cl)cc3)nn21 (stereo not drawn) [Compound I-0185]
21,100 to 1000,CCCCC1CN(CC(=O)NC2(C#N)CC2)C(=O)c2cc(-c3ccc(Cl)cc3)nn21 (stereo not drawn) [Compound I-0187]
22,10 to 100,CCCC1CN(Cc2ccc(C#N)cc2)C(=O)c2cc(-c3ccc(Cl)cc3NC(C)=O)nn21 (stereo not drawn) [Compound I-0188]
23,10 to 100,CCCCC1CN(Cc2ccc(C#N)cc2)C(=O)c2cc(-c3ccc(Cl)cc3NC(C)=O)nn21 (stereo not drawn) [Compound I-0189]
24,10 to 100,N#Cc1ccc(CN2CC(COCC(F)(F)C(F)F)n3nc(-c4ccc(Cl)cc4)cc3C2=O)cc1 (stereo not drawn) [Compound I-0190]
25,100 to 1000,CCCCC1CN(Cc2ccc(C#N)cc2)C(=O)c2cc(-c3ccc(C(F)(F)F)cc3)nn21 (stereo not drawn) [Compound I-0191]
26,100 to 1000,CCCCC1CN(Cc2ccc(C#N)cc2)C(=O)c2cc(-c3ccc(OC(F)(F)F)cc3CC#N)nn21 (stereo not drawn) [Compound I-0192]
27,100 to 1000,CC(C)OCC1CN(Cc2ccc(C#N)cc2)C(=O)c2cc(-c3ccc(Cl)cc3)nn21 (stereo not drawn) [Compound I-0193]
28,100 to 1000,CCCCC1CN(Cc2ccc(C#N)cc2)C(=O)c2cc(-c3ccc(OC(F)(F)F)cc3)nn21 (stereo not drawn) [Compound I-0194]
29,100 to 1000,N#Cc1ccc(CN2CC(COC(F)(F)C(F)F)n3nc(-c4ccc(Cl)cc4)cc3C2=O)cc1 (stereo not drawn) [Compound I-0195]

row,Structure (SMILES),IC50 [nM]
1,N#Cc1ccc(CN2CC(CC(F)(F)C(F)(F)C(F)(F)F)n3nc(-c4ccc(Cl)cc4)cc3C2=O)cc1 (stereo not drawn) [Compound I-0186],≥ 1000
